# Results: patent publication EP4782444A1, “CRYSTAL FORM OF PYRIMIDINE ANILINE COMPOUND, PREPARATION METHOD, AND USE” (TYK Medicines, Inc., priority 2023, dated 2025)
# Like-named read-outs stand apart in the source and are kept apart here.
# Key:
# physchem [1] = assay: physchem
# [2] = 37 °C
# [3] = Pharmacokinetic study in rats, single oral gavage; settings: SD rats, 30 mpk; for AUC0-last / Cmax / T1/2 / Tmax: plasma, 30 mg/kg
# Protocol: SD rats received a single oral gavage administration of citrate crystalline form I, mesylate crystalline form I, and free base crystalline form I, respectively. Blood samples were collected at various time points to determine drug concentrations in rat plasma post administration of tested substance and calculate PK-related parameters.
# The prepared test sample solutions were analyzed by the analytical department of the present test facility using LC-MS/MS.
# Animals were fasted (≥10 h) with free access to water from the day before dosing. On the test day, rats were weighed respectively, marked at the tail, and blank blood samples were collected before administration. Blood was collected via tail vein.
# 0.1 mL of whole blood was collected into EDTA-Na2 anticoagulant tubes, inverted 3-4 times to mix well, centrifuged at 10,000 g, 4 °C for 5 min to separate plasma, and stored at - 80 °C until analysis. Blood was collected via tail vein.
# Plasma samples were analyzed by the analytical department of the test facility using LC-MS/MS.
# [4] = Solid-state stability study (HPLC and XRPD analysis); format: physicochemical
# physchem [5] = assay: physchem; remark: listed apart in the source
# [6] = day 0 (baseline before storage), mean of 3 parallel experiments
structure (smiles),measurement,setting,value
C=CC(=O)Nc1cc(Nc2ncc(C(=O)OC(C)C)c(-c3cn(C)c4ccccc34)n2)c(OC)cc1N(C)[C@@H]1[C@@H]2CN(C)C[C@@H]21 [Free base crystalline form I],Solubility,"physchem [1]; 1,4-dioxane",< 270 µg/mL
same,Solubility,physchem [1]; acetone,2220 to 4440 µg/mL
same,Solubility,physchem [1]; acetonitrile,930 to 1010 µg/mL
same,Solubility,physchem [1]; cyclohexane,< 330 µg/mL
same,Solubility,physchem [1]; dce,61800 to 124000 µg/mL
same,Solubility,physchem [1]; dcm,> 107000 µg/mL
same,Solubility,physchem [1]; dmso,2600 to 2930 µg/mL
same,Solubility,physchem [1]; ethanol,< 300 µg/mL
same,Solubility,physchem [1]; ethyl acetate,< 290 µg/mL
same,Solubility,physchem [1]; heptane,< 300 µg/mL
same,Solubility,physchem [1]; ipac,< 300 µg/mL
same,Solubility,physchem [1]; isopropanol,< 350 µg/mL
same,Solubility,physchem [1]; mek,2780 to 4440 µg/mL
same,Solubility,physchem [1]; meoh,< 400 µg/mL
same,Solubility,physchem [1]; mtbe,< 330 µg/mL
same,Solubility,physchem [1]; nmp,18200 to 27400 µg/mL
same,Solubility,physchem [1]; thf,2550 to 3190 µg/mL
same,Solubility,physchem [1]; water,< 270 µg/mL
same,Solubility,"[2]; FaSSIF, 0.5 h, 30 min",130 µg/mL
same,Solubility,"[2]; FaSSIF, 2 h, 120 min",130 µg/mL
same,Solubility,"[2]; FaSSIF, 24 h, 1440 min",180 µg/mL
same,Solubility,"[2]; FeSSIF, 0.5 h, 30 min",3530 µg/mL
same,Solubility,"[2]; FeSSIF, 2 h, 120 min",> 5020 µg/mL
same,Solubility,"[2]; FeSSIF, 24 h, 1440 min",> 5020 µg/mL
same,Solubility,"[2]; H2O, 0.5 h, 30 min",10 µg/mL
same,Solubility,"[2]; H2O, 2 h, 120 min",10 µg/mL
same,Solubility,"[2]; H2O, 24 h, 1440 min",10 µg/mL
same,Solubility,"[2]; SGF, 0.5 h, 30 min",>5000 µg/mL
same,Solubility,"[2]; SGF, 2 h, 120 min",> 5000 µg/mL
same,Solubility,"[2]; SGF, 24 h, 1440 min",> 5000 µg/mL
same,AUC0-last,[3],1122.05 ng·h/mL
same,Cmax,[3],126.5 ng/mL
same,T1/2,[3],2.19 h
same,Tmax,[3],4 h
C=CC(=O)Nc1cc(Nc2ncc(C(=O)OC(C)C)c(-c3cn(C)c4ccccc34)n2)c(OC)cc1N(C)[C@@H]1[C@@H]2CN(C)C[C@@H]21 [Maleate crystalline form II],Solubility,"[2]; FaSSIF, 0.5 h, 30 min",> 5030 µg/mL
same,Solubility,"[2]; FaSSIF, 2 h, 120 min",> 5030 µg/mL
same,Solubility,"[2]; FaSSIF, 24 h, 1440 min",3450 µg/mL
same,Solubility,"[2]; FeSSIF, 0.5 h, 30 min",> 5010 µg/mL
same,Solubility,"[2]; FeSSIF, 2 h, 120 min",> 5010 µg/mL
same,Solubility,"[2]; FeSSIF, 24 h, 1440 min",> 5010 µg/mL
same,Solubility,"[2]; H2O, 0.5 h, 30 min",1640 µg/mL
same,Solubility,"[2]; H2O, 2 h, 120 min",1620 µg/mL
same,Solubility,"[2]; H2O, 24 h, 1440 min",1840 µg/mL
same,Solubility,"[2]; SGF, 0.5 h, 30 min",> 5010 µg/mL
same,Solubility,"[2]; SGF, 2 h, 120 min",> 5010 µg/mL
same,Solubility,"[2]; SGF, 24 h, 1440 min",> 5010 µg/mL
same,Appearance,"[4]; 25°C/60%RH, day 3",Unchanged
same,Crystalline Form,"[4]; 25°C/60%RH, day 3, XRPD",Unchanged
same,Purity %,"[4]; 25°C/60%RH, day 3, open vial",98.68%
same,Appearance,"[4]; 25°C/60%RH, day 7",Unchanged
same,Crystalline Form,"[4]; 25°C/60%RH, day 7, XRPD",Unchanged
same,Purity %,"[4]; 25°C/60%RH, day 7, open vial",98.66%
same,Appearance,"[4]; 25°C/95±5%RH, day 3",Unchanged
same,Crystalline Form,"[4]; 25°C/95±5%RH, day 3, XRPD",Unchanged
same,Purity %,"[4]; 25°C/95±5%RH, day 3, open vial",98.66%
same,Appearance,"[4]; 25°C/95±5%RH, day 7",Unchanged
same,Crystalline Form,"[4]; 25°C/95±5%RH, day 7, XRPD",Changed
same,Purity %,"[4]; 25°C/95±5%RH, day 7, open vial",98.67%
same,Appearance,"[4]; 40°C/75%RH, day 3",Unchanged
same,Crystalline Form,"[4]; 40°C/75%RH, day 3, XRPD",Unchanged
same,Purity %,"[4]; 40°C/75%RH, day 3, open vial",98.67%
same,Appearance,"[4]; 40°C/75%RH, day 7",Unchanged
same,Crystalline Form,"[4]; 40°C/75%RH, day 7, XRPD",Unchanged
same,Purity %,"[4]; 40°C/75%RH, day 7, open vial",98.64%
same,Appearance,"[4]; 60 °C, day 3",Unchanged
same,Crystalline Form,"[4]; 60 °C, day 3, XRPD",Unchanged
same,Purity %,"[4]; 60 °C, day 3, open vial",98.66%
same,Appearance,"[4]; 60 °C, day 7",Unchanged
same,Crystalline Form,"[4]; 60 °C, day 7, XRPD",Unchanged
same,Purity %,"[4]; 60 °C, day 7, open vial",98.68%
same,Appearance,"[4]; 80 °C, day 1",Unchanged
same,Crystalline Form,"[4]; 80 °C, day 1, XRPD",Unchanged
same,Purity %,"[4]; 80 °C, day 1, open vial",98.77%
same,Appearance,"[4]; 80 °C, day 3",Unchanged
same,Crystalline Form,"[4]; 80 °C, day 3, XRPD",Unchanged
same,Purity %,"[4]; 80 °C, day 3, open vial",98.66%
same,Crystalline Form,"[4]; after 7 days, 25 °C /90±5%RH",transformed into an unstable hydrate of maleate
same,Purity %,[4]; [6],98.83%
same,changes under other conditions,[4]; storage conditions other than 25 °C /90±5%RH,no significant changes were observed
C=CC(=O)Nc1cc(Nc2ncc(C(=O)OC(C)C)c(-c3cn(C)c4ccccc34)n2)c(OC)cc1N(C)[C@@H]1[C@@H]2CN(C)C[C@@H]21 [Mesylate crystalline form I],Solubility,"[2]; FaSSIF, 0.5 h, 30 min",>5000 µg/mL
same,Solubility,"[2]; FaSSIF, 2 h, 120 min",> 5000 µg/mL
same,Solubility,"[2]; FaSSIF, 24 h, 1440 min",3410 µg/mL
same,Solubility,"[2]; H2O, 0.5 h, 30 min",>5000 µg/mL
same,Solubility,"[2]; H2O, 2 h, 120 min",> 5000 µg/mL
same,Solubility,"[2]; H2O, 24 h, 1440 min",> 5000 µg/mL
same,in vivo exposure in rats compared with free base crystalline form I,[3],higher
same,AUC0-last,[3],1811.31 ng·h/mL
same,Cmax,[3],222.5 ng/mL
same,T1/2,[3],2.54 h
same,Tmax,[3],3 h
same,Appearance,"[4]; 25°C/60%RH, day 3",Unchanged
same,Crystalline Form,"[4]; 25°C/60%RH, day 3, XRPD",Unchanged
same,Purity %,"[4]; 25°C/60%RH, day 3, open vial",98.19%
same,Appearance,"[4]; 25°C/60%RH, day 7",Unchanged
same,Crystalline Form,"[4]; 25°C/60%RH, day 7, XRPD",Unchanged
same,Purity %,"[4]; 25°C/60%RH, day 7, open vial",98.24%
same,Appearance,"[4]; 25°C/95±5%RH, day 3",Unchanged
same,Crystalline Form,"[4]; 25°C/95±5%RH, day 3, XRPD",Unchanged
same,Purity %,"[4]; 25°C/95±5%RH, day 3, open vial",98.17%
same,Appearance,"[4]; 25°C/95±5%RH, day 7",Unchanged
same,Crystalline Form,"[4]; 25°C/95±5%RH, day 7, XRPD",Unchanged
same,Purity %,"[4]; 25°C/95±5%RH, day 7, open vial",98.20%
same,Appearance,"[4]; 40°C/75%RH, day 3",Unchanged
same,Crystalline Form,"[4]; 40°C/75%RH, day 3, XRPD",Unchanged
same,Purity %,"[4]; 40°C/75%RH, day 3, open vial",98.17%
same,Appearance,"[4]; 40°C/75%RH, day 7",Unchanged
same,Crystalline Form,"[4]; 40°C/75%RH, day 7, XRPD",Unchanged
same,Purity %,"[4]; 40°C/75%RH, day 7, open vial",98.16%
same,Appearance,"[4]; 60 °C, day 3",Unchanged
same,Crystalline Form,"[4]; 60 °C, day 3, XRPD",Unchanged
same,Purity %,"[4]; 60 °C, day 3, open vial",98.15%
same,Appearance,"[4]; 60 °C, day 7",Unchanged
same,Crystalline Form,"[4]; 60 °C, day 7, XRPD",Unchanged
same,Purity %,"[4]; 60 °C, day 7, open vial",98.12%
same,Appearance,"[4]; 80 °C, day 1",Unchanged
same,Crystalline Form,"[4]; 80 °C, day 1, XRPD",Unchanged
same,Purity %,"[4]; 80 °C, day 1, open vial",98.38%
same,Appearance,"[4]; 80 °C, day 3",Unchanged
same,Crystalline Form,"[4]; 80 °C, day 3, XRPD",Unchanged
same,Purity %,"[4]; 80 °C, day 3, open vial",98.24%
same,Purity %,[4]; [6],98.50%
same,Crystalline Form,[4]; under all five storage conditions,remained unchanged
same,solubility at 0.5 h,physchem [5]; fessif,> 5010 µg/mL
same,solubility at 2 h,physchem [5]; fessif,> 5010 µg/mL
same,solubility at 24 h,physchem [5]; fessif,> 5010 µg/mL
same,solubility at 0.5 h,physchem [5]; sgf,> 5000 µg/mL
same,solubility at 2 h,physchem [5]; sgf,> 5000 µg/mL
same,solubility at 24 h,physchem [5]; sgf,> 5000 µg/mL
